Earlier results, collected in patent US20040142049A1, “Compositions having tnf production inhibitory effect and tnf production inhibitors” (priority 2001, published 2004).

System: TNF
Details: background art, prior publications

COc1cc(/C=C/C(=O)CC(=O)/C=C/c2ccc(O)c(OC)c2)ccc1O [curcumin]
TNF production inhibitory effect (in words): has a TNF production inhibitory effect
